# Experimental data as given in PubChem BioAssay (NCI).
#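 Grown in 96-well plates, cells were treated for 48 hours with each compound at five concentrations. Insufficient inhibition: endpoint recorded as highest concentration tested. At the GI50, growth is halved. TGI denotes the concentration required for complete inhibition of growth.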
# How the values were obtained:
# Test in all cases: NCI tumour cell line growth inhibition, 48 h
# M14 melanoma = test system: M14 melanoma
# MDA-MB-231 breast = test system: MDA-MB-231 breast
# SK-MEL-2 melanoma = test system: SK-MEL-2 melanoma
# MDA-MB-435 = test system: MDA-MB-435
# LOX IMVI melanoma = test system: LOX IMVI melanoma
# NCI-H23 lung = test system: NCI-H23 lung
# 786-0 renal = test system: 786-0 renal
# IGROV1 ovarian = test system: IGROV1 ovarian
# MALME-3M melanoma = test system: MALME-3M melanoma
# SNB-19 CNS = test system: SNB-19 CNS
# NCI-H460 lung = test system: NCI-H460 lung
# CCRF-CEM leukemia = test system: CCRF-CEM leukemia
# UACC-62 melanoma = test system: UACC-62 melanoma
# PC-3 prostate = test system: PC-3 prostate
# HL-60(TB) leukemia = test system: HL-60(TB) leukemia
# SF-539 CNS = test system: SF-539 CNS
# SK-OV-3 ovarian = test system: SK-OV-3 ovarian
# NCI-H522 lung = test system: NCI-H522 lung
# OVCAR-3 ovarian = test system: OVCAR-3 ovarian
# A498 renal = test system: A498 renal
# HOP-62 NSCLC = test system: HOP-62 NSCLC
# NCI/ADR-RES ovarian = test system: NCI/ADR-RES ovarian
# UO-31 renal = test system: UO-31 renal
# BT-549 breast = test system: BT-549 breast
# SNB-75 CNS = test system: SNB-75 CNS
# T-47D breast = test system: T-47D breast
# RPMI-8226 leukemia = test system: RPMI-8226 leukemia
# ACHN renal = test system: ACHN renal
# KM12 colon = test system: KM12 colon
# SK-MEL-28 melanoma = test system: SK-MEL-28 melanoma
# DU-145 prostate = test system: DU-145 prostate
# HCT-15 colon = test system: HCT-15 colon
# SR leukemia = test system: SR leukemia
# NCI-H226 lung = test system: NCI-H226 lung
# SN12C renal = test system: SN12C renal
# SK-MEL-5 melanoma = test system: SK-MEL-5 melanoma
# EKVX NSCLC = test system: EKVX NSCLC
# OVCAR-5 ovarian = test system: OVCAR-5 ovarian
# MCF7 breast = test system: MCF7 breast
# SW-620 colon = test system: SW-620 colon
# OVCAR-8 ovarian = test system: OVCAR-8 ovarian
# A549 NSCLC = test system: A549 NSCLC
# COLO 205 colon = test system: COLO 205 colon
# TK-10 renal = test system: TK-10 renal
# U251 CNS = test system: U251 CNS
# HCC-2998 colon = test system: HCC-2998 colon
# CAKI-1 renal = test system: CAKI-1 renal
# K-562 leukemia = test system: K-562 leukemia
# HCT-116 colon = test system: HCT-116 colon
# MOLT-4 leukemia = test system: MOLT-4 leukemia
# RXF 393 renal = test system: RXF 393 renal
# OVCAR-4 ovarian = test system: OVCAR-4 ovarian
# SF-295 CNS = test system: SF-295 CNS
# HS 578T breast = test system: HS 578T breast
# UACC-257 melanoma = test system: UACC-257 melanoma
# HT29 colon = test system: HT29 colon
# SF-268 CNS = test system: SF-268 CNS
structure (smiles),measurement,setting,value
COc1cc(/C=N/Nc2ncnc3c2cnn3-c2ccccc2)ccc1O,GI50,M14 melanoma,> 21.4 µM
same,TGI,M14 melanoma,> 25 µM
same,GI50,MDA-MB-231 breast,2.34 µM
same,TGI,MDA-MB-231 breast,> 25 µM
same,GI50,SK-MEL-2 melanoma,5.85 µM
same,TGI,SK-MEL-2 melanoma,20.6 µM
same,GI50,MDA-MB-435,1.41 µM
same,TGI,MDA-MB-435,> 15.7 µM
same,GI50,LOX IMVI melanoma,10.3 µM
same,TGI,LOX IMVI melanoma,> 25 µM
same,GI50,NCI-H23 lung,> 25 µM
same,TGI,NCI-H23 lung,> 25 µM
same,GI50,786-0 renal,> 16.2 µM
same,TGI,786-0 renal,> 25 µM
same,GI50,IGROV1 ovarian,5.03 µM
same,TGI,IGROV1 ovarian,> 22.8 µM
same,GI50,MALME-3M melanoma,> 25 µM
same,TGI,MALME-3M melanoma,> 25 µM
same,GI50,SNB-19 CNS,> 25 µM
same,TGI,SNB-19 CNS,> 25 µM
same,GI50,NCI-H460 lung,12.9 µM
same,TGI,NCI-H460 lung,> 25 µM
same,GI50,CCRF-CEM leukemia,4.54 µM
same,TGI,CCRF-CEM leukemia,> 25 µM
same,GI50,UACC-62 melanoma,15.6 µM
same,TGI,UACC-62 melanoma,> 25 µM
same,GI50,PC-3 prostate,5.24 µM
same,TGI,PC-3 prostate,> 25 µM
same,GI50,HL-60(TB) leukemia,11.7 µM
same,TGI,HL-60(TB) leukemia,> 25 µM
same,GI50,SF-539 CNS,8.84 µM
same,TGI,SF-539 CNS,> 25 µM
same,GI50,SK-OV-3 ovarian,9.88 µM
same,TGI,SK-OV-3 ovarian,> 25 µM
same,GI50,NCI-H522 lung,2.27 µM
same,TGI,NCI-H522 lung,> 17.3 µM
same,GI50,OVCAR-3 ovarian,7.18 µM
same,TGI,OVCAR-3 ovarian,> 25 µM
same,GI50,A498 renal,> 25 µM
same,TGI,A498 renal,> 25 µM
same,GI50,HOP-62 NSCLC,16.9 µM
same,TGI,HOP-62 NSCLC,> 25 µM
same,GI50,NCI/ADR-RES ovarian,> 20.9 µM
same,TGI,NCI/ADR-RES ovarian,> 25 µM
same,TGI,UO-31 renal,> 25 µM
same,GI50,BT-549 breast,> 25 µM
same,TGI,BT-549 breast,> 25 µM
same,GI50,SNB-75 CNS,1.1 µM
same,TGI,SNB-75 CNS,> 7.39 µM
same,GI50,T-47D breast,7.64 µM
same,TGI,T-47D breast,> 25 µM
same,GI50,RPMI-8226 leukemia,> 25 µM
same,TGI,RPMI-8226 leukemia,> 25 µM
same,GI50,ACHN renal,7.93 µM
same,TGI,ACHN renal,> 25 µM
same,GI50,KM12 colon,1.64 µM
same,TGI,KM12 colon,> 25 µM
same,GI50,SK-MEL-28 melanoma,18.5 µM
same,TGI,SK-MEL-28 melanoma,> 25 µM
same,GI50,DU-145 prostate,> 19.6 µM
same,TGI,DU-145 prostate,> 25 µM
same,GI50,HCT-15 colon,4.06 µM
same,TGI,HCT-15 colon,> 25 µM
same,GI50,SR leukemia,6.09 µM
same,TGI,SR leukemia,> 25 µM
same,GI50,NCI-H226 lung,> 25 µM
same,TGI,NCI-H226 lung,> 25 µM
same,GI50,SN12C renal,> 25 µM
same,TGI,SN12C renal,> 25 µM
same,GI50,SK-MEL-5 melanoma,12.6 µM
same,TGI,SK-MEL-5 melanoma,> 25 µM
same,GI50,EKVX NSCLC,> 25 µM
same,TGI,EKVX NSCLC,> 25 µM
same,GI50,OVCAR-5 ovarian,> 25 µM
same,TGI,OVCAR-5 ovarian,> 25 µM
same,GI50,MCF7 breast,6.54 µM
same,TGI,MCF7 breast,> 25 µM
same,GI50,SW-620 colon,11.1 µM
same,TGI,SW-620 colon,> 25 µM
same,GI50,OVCAR-8 ovarian,> 14.7 µM
same,TGI,OVCAR-8 ovarian,> 25 µM
same,GI50,A549 NSCLC,> 20.5 µM
same,TGI,A549 NSCLC,> 25 µM
same,GI50,COLO 205 colon,> 14.6 µM
same,TGI,COLO 205 colon,> 25 µM
same,GI50,TK-10 renal,> 19.2 µM
same,TGI,TK-10 renal,> 25 µM
same,GI50,U251 CNS,11.6 µM
same,TGI,U251 CNS,> 25 µM
same,GI50,HCC-2998 colon,21.6 µM
same,TGI,HCC-2998 colon,> 25 µM
same,GI50,CAKI-1 renal,2.52 µM
same,TGI,CAKI-1 renal,> 25 µM
same,GI50,K-562 leukemia,2.85 µM
same,TGI,K-562 leukemia,> 25 µM
same,GI50,HCT-116 colon,8.18 µM
same,TGI,HCT-116 colon,> 25 µM
same,GI50,MOLT-4 leukemia,> 25 µM
same,TGI,MOLT-4 leukemia,> 25 µM
same,GI50,RXF 393 renal,4.33 µM
same,TGI,RXF 393 renal,> 25 µM
same,GI50,OVCAR-4 ovarian,15.5 µM
same,TGI,OVCAR-4 ovarian,> 25 µM
same,GI50,SF-295 CNS,> 15.5 µM
same,TGI,SF-295 CNS,> 25 µM
same,GI50,HS 578T breast,2.18 µM
same,TGI,HS 578T breast,> 25 µM
same,GI50,UACC-257 melanoma,> 25 µM
same,TGI,UACC-257 melanoma,> 25 µM
same,GI50,HT29 colon,8.18 µM
same,TGI,HT29 colon,> 24.1 µM
same,GI50,SF-268 CNS,> 18.4 µM
same,TGI,SF-268 CNS,> 25 µM
